Assay [1] has as its system plasma membrane PI(4,5)P2 of U937 cells. Kind of assay: Anti-PI(4,5)P2 antibody blocking assay. It counts as cell-based, human. Conditions: 15 μM defensins 30 min or 10 mM neomycin 3 h; cells fixed, saponin-lysed, FITC-conjugated anti-PI(4,5)P2 IgM, flow cytometry. How it is done: U937 cells at 1×10^6 cells/mL were treated with 10 mM neomycin for 3 h and/or 15 μM defensins for 30 min in serum-free RPMI 1640 medium containing 0.1% BSA, followed by 20 min fixation with 2% (v/w) paraformaldehyde (Sigma-Aldrich), 10 min lysis with 0.5% (w/v) saponin (Sigma-Aldrich), and then 30 min blocking with 3% (w/v) BSA. Three 5-min centrifugal washes with PBS at 500 g were also included between steps. FITC-conjugated mouse anti-PI(4,5)P2 IgM (Echelon Biosciences) or IgM control (GeneTex, Irvine, CA) was subsequently used at 10 μg/mL for 30 min prior to flow cytometry analysis.
For orientation: Flow cytometry measures light scatter and fluorescence of single cells or particles in a stream.

The nature of assay [2]: Protein-lipid overlay assay, Membrane strip. The format is binding. To be noted: 1 μg/mL protein, immunodetection, densitometry. Here is the method: Protein-lipid overlay assays using Membrane strip™ or PIP strip™ (Echelon Biosciences, Salt Lake City, UT) were performed using 1 μg/mL proteins as described previously. Lipid binding was immunodetected using a combination of rabbit anti-HBD-3 IgG (50 μg/mL) and horseradish peroxidase-conjugated donkey-anti-rabbit Ig (10 μg/mL) antibodies. Chemiluminescence signal intensity was quantitated by densitometry analysis using ImageJ (National Institutes of Health, Bethesda, MD; http://imagej.nih.gov/ij/).

Where no end group is shown, it is not given here.

As to “human β-defensin 3 (GIINTLQKYYCRVRGGRCAVLSCLPKEEQIGKCSTRGRKCCRRKK; not fully specified; cysteine pairing not given here; UniProt P81534 23-67, looked up) [HBD-3, human β-defensin 3, cationic antimicrobial peptide, recombinantly expressed in P. pastoris]”, the “blocking of anti-PI(4,5)P2 antibody binding (overall fluorescence intensity vs untreated control)” value in assay [1] is “significant decrease of overall fluorescence intensity”. The “relative binding intensity to lipids on Membrane strip” value in assay [2] is “greater relative binding intensity toward phospholipids”.

Values taken from PMC4811302, “Human β-defensin 3 contains an oncolytic motif that binds PI(4,5)P2 to mediate tumour cell permeabilisation” (Oncotarget, 2015).
